# Paper PMC7872314, “Modeling Bioavailable Concentrations in Zebrafish Cell Lines and Embryos Increases the Correlation of Toxicity Potencies across Test Systems” (Environmental Science & Technology, 2020)
# Read-outs that look alike come from different tables or passages of the source.
# Tests used:
# [1] = system: ZF4 (fibroblasts) cell line; assay: MTS assay (MTS/BCA multiplex), NAD(P)H metabolism; format: cell-based, zebrafish (Danio rerio); details: Danio rerio, Fibroblast
# [2] = system: ZFL (hepatocytes) cell line; assay: cells; format: cell-based, zebrafish (Danio rerio); details: Danio rerio, Hepatocyte
# [3] = system: ZF4 (fibroblasts) cell line; assay: BCA assay (MTS/BCA multiplex), protein amount; format: cell-based, zebrafish (Danio rerio); details: Danio rerio, Fibroblast
# [4] = system: ZFL (hepatocytes) cell line; assay: cells; format: cell-based, zebrafish (Danio rerio); details: Danio rerio, Hepatocyte; remark: listed apart in the source
# [5] = system: ZF4 (fibroblasts) cell line; assay: ATP assay (ATP/LDH multiplex), ATP metabolism; format: cell-based, zebrafish (Danio rerio); details: Danio rerio, Fibroblast
# [6] = system: ZFL (hepatocytes) cell line; assay: cells; format: cell-based, zebrafish (Danio rerio); details: Danio rerio, Hepatocyte; remark: listed apart in the source
# [7] = system: ZF4 (fibroblasts) cell line; assay: alamarBlue (AB) endpoint of AB/CFDA/NR multiplex, cellular respiration; format: cell-based, zebrafish (Danio rerio); details: Danio rerio, Fibroblast
# [8] = system: ZFL (hepatocytes) cell line; assay: cells; format: cell-based, zebrafish (Danio rerio); details: Danio rerio, Hepatocyte; remark: listed apart in the source
# [9] = system: ZF4 (fibroblasts) cell line; assay: CFDA endpoint of AB/CFDA/NR multiplex, membrane stability; format: cell-based, zebrafish (Danio rerio); details: Danio rerio, Fibroblast
# [10] = system: ZFL (hepatocytes) cell line; assay: cells; format: cell-based, zebrafish (Danio rerio); details: Danio rerio, Hepatocyte; remark: listed apart in the source
# [11] = system: ZF4 (fibroblasts) cell line; assay: Neutral red, absorbance (NRa), AB/CFDA/NR multiplex, lysosome stability; format: cell-based, zebrafish (Danio rerio); details: Danio rerio, Fibroblast
# [12] = system: ZFL (hepatocytes) cell line; assay: cells; format: cell-based, zebrafish (Danio rerio); details: Danio rerio, Hepatocyte; remark: listed apart in the source
# [13] = system: ZF4 (fibroblasts) cell line; assay: Neutral red, fluorescence (NRf), AB/CFDA/NR multiplex, lysosome stability; format: cell-based, zebrafish (Danio rerio); details: Danio rerio, Fibroblast
# [14] = system: ZFL (hepatocytes) cell line; assay: cells; format: cell-based, zebrafish (Danio rerio); details: Danio rerio, Hepatocyte; remark: listed apart in the source
# zebrafish embryos [15] = assay: animal or person; format: in vivo, zebrafish (Danio rerio); details: for EC50: Danio rerio
# ZF4 and ZFL cell lines = assay: Cytotoxicity assays, all endpoints, both cell lines (mean/range); format: cell-based, zebrafish (Danio rerio); details: 48 h
# zebrafish embryos [16] = system: zebrafish embryos; set-up: method as in earlier work; details: nominal, cited from earlier work
# [17] = system: diverse mammalian cell assay results; set-up: method as in https://comptox.epa.gov/dashboard/; details: COMPTOX; ref https://comptox.epa.gov/dashboard/; read-out: median AC50; cited from earlier work
# [18] = ref Comptox, PubChem or DrugBank; cited from earlier work
smiles,measurement,setting,value
"CCCSc1ccc2nc(NC(=O)OC)[nH]c2c1 [Albendazole, albendazole]",IC50,"[1]; MTS - ZF4, log10 of IC50, read-out: LogIC50 (converted)",10100 nM
same,IC50,"[1]; MTS - ZF4, read-out: IC50",10100 nM
same,IC50,"[1]; ZF4, 48 h exposure, nominal, log10, read-out: logIC50 (log10 IC50;nom) MTS (converted)",10000 nM
same,IC50,"[1]; ZF4, 48 h exposure, nominal, read-out: IC50;nom MTS",10100 nM
same,IC50,"[2]; MTS - ZFL, log10 of IC50, read-out: LogIC50 (converted)",418 nM
same,IC50,"[2]; MTS - ZFL, read-out: IC50",418 nM
same,IC50,"[2]; ZFL, 48 h exposure, nominal, log10, read-out: logIC50 (log10 IC50;nom) MTS (converted)",417 nM
same,IC50,"[2]; ZFL, 48 h exposure, nominal, read-out: IC50;nom MTS",418 nM
same,IC50,"[3]; BCA - ZF4, log10 of IC50, read-out: LogIC50 (converted)",555 nM
same,IC50,"[3]; BCA - ZF4, read-out: IC50",555 nM
same,IC50,"[3]; ZF4, 48 h exposure, nominal, log10, read-out: logIC50 (log10 IC50;nom) BCA (converted)",550 nM
same,IC50,"[3]; ZF4, 48 h exposure, nominal, read-out: IC50;nom BCA",555 nM
same,IC50,"[4]; BCA - ZFL, log10 of IC50, read-out: LogIC50 (converted)",30.9 nM
same,IC50,"[4]; BCA - ZFL, read-out: IC50",30.9 nM
same,IC50,"[4]; ZFL, 48 h exposure, nominal, log10, read-out: logIC50 (log10 IC50;nom) BCA (converted)",30.9 nM
same,IC50,"[4]; ZFL, 48 h exposure, nominal, read-out: IC50;nom BCA",30.9 nM
same,IC50,"[5]; ATP - ZF4, log10 of IC50, read-out: LogIC50 (converted)",3250 nM
same,IC50,"[5]; ATP - ZF4, read-out: IC50",3250 nM
same,IC50,"[5]; ZF4, 48 h exposure, nominal, log10, read-out: logIC50 (log10 IC50;nom) ATP (converted)",3240 nM
same,IC50,"[5]; ZF4, 48 h exposure, nominal, read-out: IC50;nom ATP",3250 nM
same,IC50,"[6]; ATP - ZFL, log10 of IC50, read-out: LogIC50 (converted)",542 nM
same,IC50,"[6]; ATP - ZFL, read-out: IC50",542 nM
same,IC50,"[6]; ZFL, 48 h exposure, nominal, log10, read-out: logIC50 (log10 IC50;nom) ATP (converted)",537 nM
same,IC50,"[6]; ZFL, 48 h exposure, nominal, read-out: IC50;nom ATP",542 nM
same,IC50,"[7]; AB - ZF4, log10 of IC50, read-out: LogIC50 (converted)",7790 nM
same,IC50,"[7]; AB - ZF4, read-out: IC50",7790 nM
same,IC50,"[7]; ZF4, 48 h exposure, nominal, log10, read-out: logIC50 (log10 IC50;nom) AB (converted)",7760 nM
same,IC50,"[7]; ZF4, 48 h exposure, nominal, read-out: IC50;nom AB",7790 nM
same,IC50,"[8]; AB - ZFL, log10 of IC50, read-out: LogIC50 (converted)",3720 nM
same,IC50,"[8]; AB - ZFL, read-out: IC50",3720 nM
same,IC50,"[8]; ZFL, 48 h exposure, nominal, log10, read-out: logIC50 (log10 IC50;nom) AB (converted)",3720 nM
same,IC50,"[8]; ZFL, 48 h exposure, nominal, read-out: IC50;nom AB",3720 nM
same,IC50,"[9]; CFDA - ZF4, log10 of IC50, read-out: LogIC50 (converted)",75400 nM
same,IC50,"[9]; CFDA - ZF4, read-out: IC50",75400 nM
same,IC50,"[9]; ZF4, 48 h exposure, nominal, log10, read-out: logIC50 (log10 IC50;nom) CFDA (converted)",75900 nM
same,IC50,"[9]; ZF4, 48 h exposure, nominal, read-out: IC50;nom CFDA",75400 nM
same,IC50,"[10]; CFDA - ZFL, log10 of IC50, read-out: LogIC50 (converted)",221000 nM
same,IC50,"[10]; CFDA - ZFL, read-out: IC50",221000 nM
same,IC50,"[10]; ZFL, 48 h exposure, nominal, log10, read-out: logIC50 (log10 IC50;nom) CFDA (converted)",219000 nM
same,IC50,"[10]; ZFL, 48 h exposure, nominal, read-out: IC50;nom CFDA",221000 nM
same,IC50,"[11]; NR-abs - ZF4, log10 of IC50, read-out: LogIC50 (converted)",2360 nM
same,IC50,"[11]; NR-abs - ZF4, read-out: IC50",2360 nM
same,IC50,"[11]; ZF4, 48 h exposure, nominal, log10, read-out: logIC50 (log10 IC50;nom) NRa (converted)",2340 nM
same,IC50,"[11]; ZF4, 48 h exposure, nominal, read-out: IC50;nom NRa",2360 nM
same,IC50,"[11]; ZF4 cell line, NRa endpoint, nominal, read-out: IC50;nom",0.63 µg/mL
same,IC50,"[12]; NR-abs - ZFL, log10 of IC50, read-out: LogIC50 (converted)",904 nM
same,IC50,"[12]; NR-abs - ZFL, read-out: IC50",904 nM
same,IC50,"[12]; ZFL, 48 h exposure, nominal, log10, read-out: logIC50 (log10 IC50;nom) NRa (converted)",912 nM
same,IC50,"[12]; ZFL, 48 h exposure, nominal, read-out: IC50;nom NRa",904 nM
same,IC50,"[13]; NR-fluo - ZF4, log10 of IC50, read-out: LogIC50 (converted)",3610 nM
same,IC50,"[13]; NR-fluo - ZF4, read-out: IC50",3610 nM
same,IC50,"[13]; ZF4, 48 h exposure, nominal, log10, read-out: logIC50 (log10 IC50;nom) NRf (converted)",3630 nM
same,IC50,"[13]; ZF4, 48 h exposure, nominal, read-out: IC50;nom NRf",3610 nM
same,IC50,"[14]; NR-fluo - ZFL, log10 of IC50, read-out: LogIC50 (converted)",724 nM
same,IC50,"[14]; NR-fluo - ZFL, read-out: IC50",724 nM
same,IC50,"[14]; ZFL, 48 h exposure, nominal, log10, read-out: logIC50 (log10 IC50;nom) NRf (converted)",724 nM
same,IC50,"[14]; ZFL, 48 h exposure, nominal, read-out: IC50;nom NRf",724 nM
same,difference in toxicity (EC50;nom) between 48 hpf and 144 hpf,zebrafish embryos [15]; 48 hpf time point less sensitive than 144 hpf,approximately the same
same,log EC50;nom (mFET),"zebrafish embryos [15]; 48 hpf, nominal, log10, listed as Abz",-6.783 M
same,EC50,"zebrafish embryos [15]; 48 hpf, nominal, log10, read-out: log EC50;nom (mFET) (converted)",166 nM
same,EC50,"zebrafish embryos [15]; 48 hpf, nominal, read-out: EC50;nom (embryo)",0.05 µg/mL
same,EC50,zebrafish embryos [15]; read-out: EC50 48hpf,165 nM
same,EC50,zebrafish embryos [15]; read-out: EC50;nom (mFET),165 nM
same,IC50,"ZF4 and ZFL cell lines; Danio rerio, read-out: Mean log IC50nom, mean of all cytotoxicity endpoints (without LDH) in ZF4 and ZFL, 48 h, log10 (converted)",2510 nM
same,Mean log IC50nom,"ZF4 and ZFL cell lines; mean of all cytotoxicity endpoints (without LDH) in ZF4 and ZFL, log10, listed as Abz",-5.604 M
same,EC50,"zebrafish embryos [16]; 144 hpf, converted",158 nM
same,logEC50 144 hpf,zebrafish embryos [16]; log10,-6.8 M
same,AC50,[17],410 nM
same,BCF,[18],41.2
same,Physiological charge,[18],0
same,logKoa,[18],9.35
same,logKow,[18],3.07
same,pKa (Strongest Acidic),[18],9.51
same,pKa (Strongest Basic),[18],4.27
same,w_solubility (water solubility),[18],85.2 µM
